{
  "source": "patent US12441723B2",
  "about": "“Pyrazole compounds, formulations thereof, and a method for using the compounds and/or formulations” (Rigel Pharmaceuticals, Inc., priority 2019, dated 2025)",
  "type_in_all_cases": "physicochemical",
  "key": {"[1]": {"assay": "Modulated DSC glass transition temperature", "conditions": "mDSC, reversing heat flow versus temperature", "description": "FIG. 5 is a modulated DSC (mDSC) plot of reversing heat flow versus temperature, illustrating the heat flow for one embodiment of the spray-dried formulation and showing that the glass transition temperature (Tg) for that embodiment is 108.3° C.\nFIG. 10 is an mDSC plot of reversing heat flow versus temperature, illustrating the heat flow for a […] sample of compound I-1, and showing that the glass transition temperature (Tg) for the […] sample is 106.1° C."}, "[2]": {"assay": "DVS isotherm, spray-dried formulation versus crystalline compound I-1", "conditions": "DVS at 25° C.; crystalline compound I-1 compared with the spray-dried dispersion", "description": "(§1) FIG. 1 is a dynamic vapor sorption (DVS) plot of percent change in mass versus target relative humidity (RH), illustrating the change in mass of one embodiment of the disclosed spray-dried formulation at 25° C. under various relative humidity conditions. The plot provides two isotherms: 1 is the sorption plot, illustrating the change in mass with increasing relative humidity steps; and 2 is the desorption plot, illustrating the change in mass with decreasing relative humidity steps.\nas §1, with “FIG. 6” for “FIG. 1”, “a DVS” for “a dynamic vapor sorption (DVS)”, “relative humidity,” for “relative humidity (RH),”, “of a crystalline sample of compound I-1” for “of the disclosed spray-dried formulation”\nFIGS. 1-10 provide structural and stability data concerning the spray-dried formulation (FIGS. 1-5) and a crystalline sample of compound I-1 (FIGS. 6-10). FIGS. 1 and 6 provide DVS isotherm plots for the spray-dried formulation and crystalline compound, respectively."}, "[3]": {"assay": "Physical and chemical stability of salts of I-18, 1 week (XRPD, HPLC purity)", "conditions": "for Area (%) of HPLC peak RRT 1.00: main peak; for Area (%) of HPLC peak RRT 1.17: peak = parent compound formed by hydrolysis; for Form change: XRPD", "description": "The physical and chemical stability of the K salt, Arginine salt, Choline salt and Tris salt were evaluated under conditions of 25° C./60% RH and 40° C./75% RH for 1 week. Each sample was added into 3 mL glass vials, sealed by parafilm with several holes, and kept under tested condition. After one week, samples was taken for XRPD and HPLC purity test."}, "[4]": {"assay": "Hygroscopicity evaluation by DVS of salts of I-18", "conditions": "25° C., judged from uptake at 80% RH", "description": "To investigate the solid form stability as a function of humidity, DVS isotherm plot of the K salt, Arginine salt, Choline salt and Tris salt were collected at 25° C. between 0 and 95% RH."}, "[5]": {"conditions": "25° C./60% RH, 1 week, listed as arginine salt"}, "[6]": {"conditions": "40° C./75% RH, 1 week, listed as arginine salt"}, "[7]": {"conditions": "Initial, listed as arginine salt"}},
  "note": "Structures can show the parent of a compound that is named as a salt.",
  "data": [
    {"smiles": "CCO[C@H]1CC[C@H](n2cc(NC(=O)c3csc(-c4cn[nH]c4)n3)c(-c3nc(F)ccc3F)n2)CC1", "note": "[I-1, N-(3-(3,6-difluoropyridin-2-yl)-1-((1r,4r)-4-ethoxycyclohexyl)-1H-pyrazol-4-yl)-2-(1H-pyrazol-4-yl)thiazole-4-carboxamide]", "values": [
      {"measurement": "glass transition temperature (Tg)", "setting": "[1]", "result": 106.1, "unit": "°C"},
      {"measurement": "change in mass when exposed to higher relative humidity", "setting": "[2]", "result": "substantially smaller change in mass"}
    ]},
    {"smiles": "CCO[C@H]1CC[C@H](n2cc(NC(=O)c3csc(-c4cnn(C(C)OP(=O)(O)O)c4)n3)c(-c3nc(F)ccc3F)n2)CC1", "note": "(some centres unmarked) [I-110, 1-(4-(4-((3-(3,6-difluoropyridin-2-yl)-1-((1r,4r)-4-ethoxycyclohexyl)-1H-pyrazol-4-yl)carbamoyl)thiazol-2-yl)-1H-pyrazol-1-yl)ethyl dihydrogen phosphate arginine salt]", "values": [
      {"measurement": "Area (%) of HPLC peak RRT 1.13", "setting": "[3]; 25° C./60% RH, 1 week", "result": 0.06, "unit": "%"},
      {"measurement": "Area (%) of HPLC peak RRT 0.77", "setting": "[3]; [5]", "result": 0.03, "unit": "%"},
      {"measurement": "Area (%) of HPLC peak RRT 1.35", "setting": "[3]; [5]", "result": 0.06, "unit": "%"},
      {"measurement": "Area (%) of HPLC peak RRT 1.45", "setting": "[3]; [5]", "result": 0.50, "unit": "%"},
      {"measurement": "Area (%) of HPLC peak RRT 1.71", "setting": "[3]; [5]", "result": 0.74, "unit": "%"},
      {"measurement": "Area (%) of HPLC peak RRT 1.73", "setting": "[3]; [5]", "result": 0.61, "unit": "%"},
      {"measurement": "HPLC purity change", "setting": "[3]; [5]", "result": "slight purity decrease"},
      {"measurement": "Area (%) of HPLC peak RRT 1.00", "setting": "[3]; [5]", "result": 95.31, "unit": "%"},
      {"measurement": "Area (%) of HPLC peak RRT 1.17", "setting": "[3]; [5]", "result": 2.68, "unit": "%"},
      {"measurement": "Form change", "setting": "[3]; 25° C./60% RH/1 week, listed as Arginine salt", "result": "no form change and No"},
      {"measurement": "Area (%) of HPLC peak RRT 1.13", "setting": "[3]; 40° C./75% RH, 1 week", "result": 0.06, "unit": "%"},
      {"measurement": "Area (%) of HPLC peak RRT 0.77", "setting": "[3]; [6]", "result": 0.04, "unit": "%"},
      {"measurement": "Area (%) of HPLC peak RRT 1.35", "setting": "[3]; [6]", "result": 0.11, "unit": "%"},
      {"measurement": "Area (%) of HPLC peak RRT 1.45", "setting": "[3]; [6]", "result": 0.47, "unit": "%"},
      {"measurement": "Area (%) of HPLC peak RRT 1.71", "setting": "[3]; [6]", "result": 0.73, "unit": "%"},
      {"measurement": "Area (%) of HPLC peak RRT 1.73", "setting": "[3]; [6]", "result": 0.60, "unit": "%"},
      {"measurement": "HPLC purity change", "setting": "[3]; [6]", "result": "slight purity decrease"},
      {"measurement": "Area (%) of HPLC peak RRT 1.00", "setting": "[3]; [6]", "result": 95.50, "unit": "%"},
      {"measurement": "Area (%) of HPLC peak RRT 1.17", "setting": "[3]; [6]", "result": 2.48, "unit": "%"},
      {"measurement": "Form change", "setting": "[3]; 40° C./75% RH/1 week, listed as Arginine salt", "result": "no form change and No"},
      {"measurement": "Initial purity (area %)", "setting": "[3]; HPLC, before storage, listed as Arginine salt", "result": 95.91, "unit": "area %"},
      {"measurement": "Area (%) of HPLC peak RRT 1.35", "setting": "[3]; Initial", "result": "<0.03", "unit": "%"},
      {"measurement": "Area (%) of HPLC peak RRT 0.77", "setting": "[3]; [7]", "result": "<0.03", "unit": "%"},
      {"measurement": "Area (%) of HPLC peak RRT 1.13", "setting": "[3]; [7]", "result": "<0.03", "unit": "%"},
      {"measurement": "Area (%) of HPLC peak RRT 1.45", "setting": "[3]; [7]", "result": 0.44, "unit": "%"},
      {"measurement": "Area (%) of HPLC peak RRT 1.71", "setting": "[3]; [7]", "result": 0.73, "unit": "%"},
      {"measurement": "Area (%) of HPLC peak RRT 1.73", "setting": "[3]; [7]", "result": "<0.53", "unit": "%"},
      {"measurement": "Area (%) of HPLC peak RRT 1.00", "setting": "[3]; [7]", "result": 95.91, "unit": "%"},
      {"measurement": "Area (%) of HPLC peak RRT 1.17", "setting": "[3]; [7]", "result": 2.39, "unit": "%"},
      {"measurement": "hygroscopicity", "setting": "[4]", "result": "slight hygroscopic"}
    ]}
  ]
}
